Test results taken from patent US6878742B2, “Heterocyclic sulfonamide inhibitors of beta amyloid production” (Wyeth, priority 2000, dated 2005).
Several values for one entry are separate records, joined by “and”; a condition that tells them apart may be missing. Identical values can stand only once.

Tested on: amyloid precursor protein (APP) proteolysis
Assay: Repressor Release Assay (RRA)
Type: cell-based
Details: Conc 3 μg/mL; luciferase activity over diluent control
Method in brief: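 This repressor release assay monitors APP proteolysis in mammalian cells. Transfected CHO-K1 cells (pRSVO-luc plus APP-lacI) were seeded at […], treated with compound diluted in 25 mM Hepes, then incubated 36-48 hours. After replacing media with PBS and adding LucLite lysis/substrate buffer, luminescence was measured, and fold increase over diluent control was calculated.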

Compound | APPI Fold Increase
CC(c1ccccc1)C(CO)NS(=O)(=O)c1ccc(Cl)s1 (mixture of isomers) [Example 14] | 1.87 fold and 3.33 fold
CC(C)CC(CO)NS(=O)(=O)c1ccc(Cl)s1 (centres unmarked) [Example 90] | 1.74 fold

Same assay, conditions: Conc 3 μg/mL; luciferase activity over diluent control; read-out: APPI Fold Increase

Compound | fold induction at 3 µg/mL
CC[C@H](C)[C@@H](CO)NS(=O)(=O)C1=CC=C(Br)S1(=O)=O [Example 18, 5-Bromo-N-[(1S,2S)-1-(hydroxymethyl)-2-methylbutyl]thiophene-2-sulfonamide 1,1-dioxide] | 2.19

Same assay, conditions: Conc 10 μg/mL; luciferase activity over diluent control

Compound | APPI Fold Increase
CC[C@H](C)[C@@H](CO)NS(=O)(=O)c1cc(Br)c(Cl)s1 [Example 3] | 1 fold
CC(c1ccccc1)C(CO)NS(=O)(=O)c1ccc(Cl)s1 (mixture of isomers) [Example 14] | 3.45 fold
CC(C)CC(CO)NS(=O)(=O)c1ccc(Cl)s1 (centres unmarked) [Example 90] | 3.82 fold
O=S(=O)(N[C@H](CO)CC1CCCCC1)c1ccc(Br)s1 [Example 110] | 1.71 fold
CCCCC(O)C(NS(=O)(=O)c1ccc(Cl)s1)C(C)CC (mixture of isomers) [Example 123] | 2.14 fold and 1.76 fold

Same assay, conditions: Conc 10 μg/mL; luciferase activity over diluent control; read-out: APPI Fold Increase

Compound | fold induction at 10 µg/mL
C/C=C(\C)C(O)(/C(C)=C/C)[C@@H](NS(=O)(=O)c1ccc(Cl)s1)[C@@H](C)CC (stereo partly drawn) [Example 170, 5-chloro-N-{(S,E)-2-hydroxy-3-methyl-2-[(E)-1-methylprop-1-enyl]-1-[(S)-1-methylpropyl]pent-3-enyl}thiophene-2-sulfonamide] | 1.95
CC[C@H](C)[C@@H](CO)NS(=O)(=O)c1sc(Cl)cc1Br [Example 1, 3-Bromo-5-chloro-N-[(1S,2S)-1-(hydroxymethyl)-2-methylbutyl]thiophene-2-sulfonamide] | 1.57
CC[C@H](C)[C@H](NS(=O)(=O)c1ccc(Cl)s1)C(O)(c1cccc2ccccc12)c1cccc2ccccc12 [Example 172, 5-chloro-N-((S,S)-1-{hydroxy[di(1-naphthyl)]methyl}-2-methylbutyl)thiophene-2-sulfonamide] | 2
CC[C@H](C)[C@H](NS(=O)(=O)c1cccs1)C(O)c1ccccc1C (stereo partly drawn) [Example 144, N-{(S,S)-1-[hydroxy(2-methylphenyl)methyl]-2-methylbutyl}thiophene-2-sulfonamide] | 1.51
CC[C@H](C)[C@@H](CO)NS(=O)(=O)C1=CC=C(Br)S1(=O)=O [Example 18, 5-Bromo-N-[(1S,2S)-1-(hydroxymethyl)-2-methylbutyl]thiophene-2-sulfonamide 1,1-dioxide] | 5.23
CC(c1ccccc1)C(CO)NS(=O)(=O)c1ccc(Br)s1 (racemic) [Example 15, 5-bromo-N-[1-(hydroxymethyl)-2-phenylpropyl]thiophene-2-sulfonamide] | 3.08
CC[C@H](C)[C@H](NS(=O)(=O)c1ccc(Cl)s1)C(O)c1ccc(Cl)cc1 (stereo partly drawn) [Example 131, 5-chloro-N-{(S,S)-1-[(4-chlorophenyl)(hydroxy)methyl]-2-methylbutyl}thiophene-2-sulfonamide] | 3.64
CC[C@H](C)[C@H](NS(=O)(=O)c1ccc(Cl)s1)C(O)(c1ccccc1)c1ccccc1 [Example 164, 5-chloro-N-{(S,S)-1-[hydroxy(diphenyl)methyl]-2-methylbutyl}thiophene-2-sulfonamide] | 1.72

Same assay, conditions: Conc 20 μg/mL; luciferase activity over diluent control

Compound | APPI Fold Increase
CCC[C@@H](O)[C@@H](NS(=O)(=O)c1ccc(Cl)s1)[C@@H](C)CC [Example 187, 5-chloro-N-{(S,R)-2-hydroxy-1-[(S)-1-methylpropyl]pentyl}thiophene-2-sulfonamide] | 5.7 fold and 3 fold
5-bromo-N-{(S,S)-2-hydroxy-1-[(S)-1-methylpropyl]pent-4-enyl}thiophene-2-sulfonamide [Example 194] | 9 fold and 5.3 fold
CC[C@H](C)[C@@H](CO)NS(=O)(=O)c1cccs1 [Example 7, N-[(1S,2S)-1-(hydroxymethyl)-2-methylbutyl]thiophene-2-sulfonamide] | 3.2 fold
CC(C)CC(CO)NS(=O)(=O)c1ccc(Cl)s1 (centres unmarked) [Example 90] | 3.6 fold
O=S(=O)(N[C@H](CO)CC1CCCCC1)c1ccc(Br)s1 [Example 110] | 2.9 fold and 2.3 fold and 3.6 fold
CCCNC1CCC(C(CO)NS(=O)(=O)c2ccc(Cl)s2)CC1 (mixture of isomers) [Example 214] | 2.1 fold

Same assay, conditions: Conc 20 μg/mL; luciferase activity over diluent control; read-out: APPI Fold Increase

Compound | fold induction at 20 µg/mL
C=CCOC1CCC([C@@H](CO)NS(=O)(=O)c2ccc(Cl)s2)CC1 (stereo partly drawn) [Example 201, N-{(S)-1-[4-(allyloxy)cyclohexyl]-2-hydroxyethyl}-5-chlorothiophene-2-sulfonamide] | 2.2
CCCCC(CO)NS(=O)(=O)c1ccc(Cl)s1 (racemic) [Example 91, 5-chloro-N-[1-(hydroxymethyl)pentyl]thiophene-2-sulfonamide] | 2
CCC(NC)[C@@H](CO)NS(=O)(=O)c1ccc(Cl)s1 (stereo partly drawn) [Example 79, 5-Chloro-N-[(1S)-1-(hydroxymethyl)-2-(methylamino)butyl]thiophene-2-sulfonamide] | 1.6
CC(C)C[C@@H](C)[C@@H](CO)NS(=O)(=O)c1ccc(Cl)s1 [Example 27, 5-Chloro-N-[(1S,2R)-1-(hydroxymethyl)-2,4-dimethylpentyl]thiophene-2-sulfonamide] | 8.7
CC[C@H](C)[C@@H](CO)NS(=O)(=O)C1=CC=C(Br)S1(=O)=O [Example 18, 5-Bromo-N-[(1S,2S)-1-(hydroxymethyl)-2-methylbutyl]thiophene-2-sulfonamide 1,1-dioxide] | 5.7
COc1ccc([C@@H](C)[C@@H](CO)NS(=O)(=O)c2ccc(Cl)s2)cc1 [Example 28, 5-chloro-N-[(1S,2R)-1-(hydroxymethyl)-2-(4-methoxyphenyl)propyl]thiophene-2-sulfonamide] | 7
CCOC(=O)CNC1CCC([C@@H](CO)NS(=O)(=O)c2ccc(Cl)s2)CC1 (stereo partly drawn) [Example 220, 5-chloro-N-[(S)-2-hydroxy-1-(4-(carboethoxymethyl)aminocyclohexyl)ethyl]thiophene 2-sulfonamide] | 2.5
CCCCCC[C@H](CC)[C@@H](CO)NS(=O)(=O)c1ccc(Cl)s1 [Example 77B, 5-chloro-N-[(1S,2S)-2-ethyl-1-(hydroxymethyl)octyl]thiophene-2-sulfonamide] | 16.9
CCCCC[C@H](CC(C)C)[C@@H](CO)NS(=O)(=O)c1ccc(Cl)s1 [Example 42, 5-chloro-N-[(1S,2R)-1-(hydroxymethyl)-2-isobutylheptyl]thiophene-2-sulfonamide] | 3.4
O=S(=O)(NC1(CO)CCCCC1)c1ccc(Cl)s1 [Example 177, 5-Chloro-N-[1-(hydroxymethyl)cyclohexyl]thiophene-2-sulfonamide] | 5.1
CC[C@H](C)[C@@H](CO)N(Cc1cccc(Cl)c1)S(=O)(=O)c1ccc(Cl)s1 [Example 88, 5-chloro-N-(3-chlorobenzyl)-N-[(1S,2S)-1-(hydroxymethyl)-2-methylbutyl]thiophene-2-sulfonamide] | 4.9
CC[C@H](CC(C)C)[C@@H](CO)NS(=O)(=O)c1ccc(Br)s1 [Example 59, 5-bromo-N-[(1S,2R)-2-ethyl-1-(hydroxymethyl)-4-methylpentyl]thiophene-2-sulfonamide] | 4.5
CC[C@@H](c1ccco1)[C@@H](CO)NS(=O)(=O)c1ccc(Cl)s1 [Example 49, 5-chloro-N-[(1S,2R)-2-(2-furyl)-1-(hydroxymethyl)butyl]thiophene-2-sulfonamide] | 6.1
O=S(=O)(N[C@H](CO)C1CCC(NCc2ccccn2)CC1)c1ccc(Cl)s1 (stereo partly drawn) [Example 219, 5-chloro-N-[(S)-2-hydroxy-1-(4-(2-pyridyl)methylaminocyclohexyl)ethyl]thiophene-2-sulfonamide] | 2.3
CC(C)C[C@@H](c1cccnc1)[C@@H](CO)NS(=O)(=O)c1ccc(Br)s1 [Example 69, 5-bromo-N-[(1S,2S)-1-(hydroxymethyl)-4-methyl-2-pyridin-3-ylpentyl]thiophene-2-sulfonamide] | 1.5
C[C@@H](O)[C@@H](CO)NS(=O)(=O)c1ccc(Cl)s1 [Example 103, 5-chloro-N-[(R,R)-2-hydroxy-1-(hydroxymethyl)propyl]thiophene-2-sulfonamide] | 2.3
CC[C@@H](c1ccco1)[C@@H](CO)NS(=O)(=O)c1ccc(Br)s1 [Example 71, 5-bromo-N-[(1S,2R)-2-(2-furyl)-1-(hydroxymethyl)butyl]thiophene-2-sulfonamide] | 5.2
O=S(=O)(N[C@H](CO)C1CCC(NCc2ccncc2)CC1)c1ccc(Cl)s1 (stereo partly drawn) [Example 218, 5-chloro-N-[(S)-2-hydroxy-1-(4-(4-pyridyl)methylaminocyclohexyl)ethyl]thiophene-2-sulfonamide] | 2.8
CC[C@H](C)[C@@H](CO)NS(=O)(=O)c1ccco1 [Example 206, N-[(1S,2S)-1-(hydroxymethyl)-2-methylbutyl]-2-furansulfonamide] | 1.8
CCCCCC[C@H](CC)[C@@H](CO)NS(=O)(=O)c1ccc(Br)s1 [Example 78B, 5-bromo-N-[(1S,2S)-2-ethyl-1-(hydroxymethyl)octyl]thiophene-2-sulfonamide] | 23
CCC[C@H](c1ccc(OC)cc1)[C@@H](CO)NS(=O)(=O)c1ccc(Cl)s1 [Example 36, 5-chloro-N-[(1S,2R)-1-(hydroxymethyl)-2-(4-methoxyphenyl)pentyl]thiophene-2-sulfonamide] | 3.8
CC(C)(CO)NS(=O)(=O)c1ccc(Br)s1 [Example 107, 5-bromo-N-(2-hydroxy-1,1-dimethylethyl)thiophene-2-sulfonamide] | 1.5
CC(NC1CCCC1)[C@@H](CO)NS(=O)(=O)c1ccc(Cl)s1 (stereo partly drawn) [Example 86, 5-chloro-N-[(1S)-2-(cyclopentylamino)-1-(hydroxymethyl)propyl]-2-thiophenesulfonamide] | 20
CCCCCC[C@@H](C(C)C)[C@@H](CO)NS(=O)(=O)c1ccc(Cl)s1 [Example 52, 5-chloro-N-[(1S,2S)-1-(hydroxymethyl)-2-isopropyloctyl]thiophene-2-sulfonamide] | 7
CCC(CC)[C@H](NS(=O)(=O)c1ccc(Cl)s1)C(C)(C)O [Example 223, 5-Chloro-N-[(S)-2-ethyl-1-(1-hydroxy-1-methylethyl)butyl]thiophene-2-sulfonamide] | 5.6
